# Earlier results as cited in patent publication US20220192993A1, “DOSAGE FORMS AND METHODS OF PREPARATION AND USE THEREOF” (Willow Bark Brands, Inc., priority 2019, published 2022).
# Test system: brain alpha wave activity
# Conditions: reported effect, 'testing shows'
smiles,measurement,value
CCNC(=O)CC[C@H](N)C(=O)O [L-Theanine],brain alpha wave activity,L-Theanine increases
